# Values of other authors in US20210369737A1, “PROSTATE FUNCTION SUPPORT FORMULA” (Innovus Pharmaceuticals, Inc., priority 2017, published 2021).
# Experiments:
# prostate cancer = conditions: in vitro and in vivo
# [1] = tested on: human prostate tumor in vivo xenografts
# prostate cancer cells [2] = conditions: in vitro
# androgen receptor = target: T1, androgen receptor (Homo sapiens, UniProt P10275); conditions: in vitro
# T1 sequence (P10275 1-920): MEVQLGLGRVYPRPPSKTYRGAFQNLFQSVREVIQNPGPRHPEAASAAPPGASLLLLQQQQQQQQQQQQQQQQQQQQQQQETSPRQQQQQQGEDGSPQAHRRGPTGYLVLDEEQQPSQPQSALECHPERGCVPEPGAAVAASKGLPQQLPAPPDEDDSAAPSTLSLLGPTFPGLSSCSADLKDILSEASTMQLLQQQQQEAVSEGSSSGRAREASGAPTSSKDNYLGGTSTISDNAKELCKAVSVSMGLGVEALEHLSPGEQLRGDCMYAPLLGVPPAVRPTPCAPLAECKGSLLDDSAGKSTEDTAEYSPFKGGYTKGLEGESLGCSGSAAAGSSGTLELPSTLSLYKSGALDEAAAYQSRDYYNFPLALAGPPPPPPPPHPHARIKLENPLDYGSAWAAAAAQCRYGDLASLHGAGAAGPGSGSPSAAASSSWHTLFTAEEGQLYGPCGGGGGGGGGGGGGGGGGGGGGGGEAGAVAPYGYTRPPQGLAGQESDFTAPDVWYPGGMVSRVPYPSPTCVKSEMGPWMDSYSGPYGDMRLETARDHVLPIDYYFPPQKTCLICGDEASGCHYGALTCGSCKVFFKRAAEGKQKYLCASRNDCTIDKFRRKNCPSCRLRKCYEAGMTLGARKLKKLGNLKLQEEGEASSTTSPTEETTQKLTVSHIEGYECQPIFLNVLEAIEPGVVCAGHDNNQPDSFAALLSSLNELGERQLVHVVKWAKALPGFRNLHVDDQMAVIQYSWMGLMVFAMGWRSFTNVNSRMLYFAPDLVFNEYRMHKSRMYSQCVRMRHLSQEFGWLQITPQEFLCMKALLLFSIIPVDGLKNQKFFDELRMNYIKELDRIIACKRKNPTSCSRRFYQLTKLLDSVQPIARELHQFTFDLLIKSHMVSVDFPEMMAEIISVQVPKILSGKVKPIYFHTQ
# prostate cancer cells [3] = tested on: prostate cancer cells
# PSA = conditions: clinical trials
# [4] = in vivo
# [5] = tested on: prostate cancer and BPH cells; conditions: in vitro
# prostate cancer cell = conditions: in vitro
# prostate tumors = conditions: TRAMP mice
compound,measurement,setting,value
Vitamin E,"prostate cancer risk, tumor progression, apoptosis",prostate cancer,"reduce risk of prostate cancer, suppress tumor progression and cell apoptosis"
"O=c1c(O)c(-c2ccc(O)c(O)c2)oc2cc(O)cc(O)c12 [Quercetin, 2-(3,4-dihydroxyphenyl)-3,5,7-trihydroxy-4H-chromen-4-one]",prostate weight and anti-tumor activity,"[1]; in vivo, in combination with finasteride",effective in vivo in combination with finasteride to reduce prostate weight and anti-tumor activity
same,effect on human prostate tumor xenografts,[1]; mice,has an effect on human prostate tumor in vivo xenografts
same,symptoms in CP/CPPS,CP/CPPS; clinical,symptomatic improvement
same,IPSS,"CP/CPPS; randomized, double-blind, placebo controlled clinical trial",decrease in IPSS
same,apoptosis and caspase activation,prostate cancer cells [2],promoted prostate cancer cells apoptosis and caspase activation
same,prostate cancer cell proliferation,prostate cancer cells [2],inhibits prostate cancer cell proliferation
"CC[C@H](CC[C@@H](C)[C@H]1CC[C@H]2[C@@H]3CC=C4C[C@@H](O)CC[C@]4(C)[C@H]3CC[C@]12C)C(C)C [Beta-sitosterols, Beta-Sitosterol]",levels of DHT,BPH; clinical,decrease levels of DHT
same,urinary flow,BPH; clinical,significantly improve urinary flow
same,maintenance of improvements in follow-up,"BPH; follow-up study, observation",18 months
same,symptom scores,"BPH; versus placebo, after three and six months of treatment",significant decrease in symptom scores
[Se] [Selenium],levels of p53,androgen receptor,increase levels of p53
same,activity of the androgen receptor,androgen receptor; prostate cancer cells,decrease the activity of the androgen receptor
same,"prostate cancer risk, tumor progression, apoptosis",prostate cancer,"reduce risk of prostate cancer, suppress tumor progression and cell apoptosis"
CC(C)=CCC/C(C)=C/C=C/C(C)=C/C=C/C(C)=C/C=C/C=C(C)/C=C/C=C(C)/C=C/C=C(\C)CCC=C(C)C [Lycopene],antitumorigenic effect,prostate cancer cells [3]; animal studies,antitumorigenic effect
same,"antioxidant response, proliferation, apoptosis, metastatic capacity of prostate cells",prostate cancer cells [3]; in vitro and in vivo,"enhance the antioxidant response of prostate cells, inhibit proliferation, demonstrate chemopreventive effect induce apoptosis and decrease the metastatic capacity of prostate cancer cells"
same,PSA levels,PSA,reduction of PSA levels
same,safety status,[4],generally recognized as safe (GRAS)
[Zn] [Zinc],apoptosis and antiproliferative effects,[5],induces apoptosis and antiproliferative effects
O=C(O[C@@H]1Cc2c(O)cc(O)cc2O[C@@H]1c1cc(O)c(O)c(O)c1)c1cc(O)c(O)c(O)c1 [EGCG],androgen antagonism,prostate cancer cell,acts as an anti-androgen antagonist
same,prostate cancer cell proliferation and PSA production,prostate cancer cell,suppresses prostate cancer cell proliferation and production of prostate-specific antigen (PSA)
same,tumor size and development of prostate tumors,prostate tumors,reduces tumor size and delays development of prostate tumors
